Laboratory results taken from ChEMBL document CHEMBL3885861, “Open TG-GATES”.

Species: Rattus norvegicus
Experiment: Open TG-GATES - Regimen: Single
Format: toxicity, organism-based, Sprague-Dawley
Design: regimen Single, gender Male, age 6 weeks
Settings: in vivo, po, 0 mg/kg, route gavage, dose level Control; for APTT / Bas / Eos / Fbg / Hb / Ht / Lym / MCH / MCHC / MCV / Mono / Neu / PT / Plat / RBC / Ret / WBC: tissue Blood; for KIDNEY_L / KIDNEY_R / KIDNEY_TOTAL: tissue Kidney; for LIVER: tissue Liver; for A/G / ALP / ALT / AST / BUN / CRE / Ca / Cl / DBIL / GLC / IP / K / LDH / Na / PL / RALB / TBIL / TC / TG / TP / gamma-GTP: tissue Plasma

## CCCCNC(=O)NS(=O)(=O)c1ccc(C)cc1 [TOLBUTAMIDE]
3 h
  TERMINAL_BW: 203.9 g
  APTT: 16.5 s
  Bas: 0%
  Eos: 0.8%
  Fbg: 286.6 mg/dL
  Hb: 13.7 g/dL
  Ht: 42.1%
  Lym: 78.2%
  MCH: 21 pg
  MCHC: 32.5%
  MCV: 64.8 fL
  Mono: 2.8%
  Neu: 18%
  PT: 12.9 s
  Plat: 128.5 x10_4/uL
  RBC: 649.4 x10_4/ul
  Ret: 8.5%
  WBC: 86 x10_2/uL
  KIDNEY_L: 0.9 g
  KIDNEY_R: 0.9 g
  KIDNEY_TOTAL: 1.8 g
  LIVER: 9.1 g
  A/G: 0.9
  ALP: 1445.2 IU/L
  ALT: 43.8 IU/L
  AST: 73.6 IU/L
  BUN: 9.8 mg/dL
  CRE: 0.2 mg/dL
  Ca: 11 mg/dL
  Cl: 106.8 meq/L
  DBIL: 0.006 mg/dL
  GLC: 175 mg/dL
  IP: 8.9 mg/dL
  K: 4.1 meq/L
  LDH: 52.4 IU/L
  Na: 141.6 meq/L
  PL: 145 mg/dL
  RALB: 2.5 g/dL
  TBIL: 0.078 mg/dL
  TC: 80.8 mg/dL
  TG: 54.6 mg/dL
  TP: 5.3 g/dL
  gamma-GTP: 1 IU/L
6 h
  TERMINAL_BW: 204 g
  APTT: 18.7 s
  Bas: 0.2%
  Eos: 1%
  Fbg: 279.6 mg/dL
  Hb: 13.6 g/dL
  Ht: 41.9%
  Lym: 80.4%
  MCH: 20.6 pg
  MCHC: 32.5%
  MCV: 63.6 fL
  Mono: 2%
  Neu: 15.8%
  PT: 13.1 s
  Plat: 131.1 x10_4/uL
  RBC: 659.4 x10_4/ul
  Ret: 8.1%
  WBC: 84.4 x10_2/uL
  KIDNEY_L: 0.9 g
  KIDNEY_R: 0.9 g
  KIDNEY_TOTAL: 1.9 g
  LIVER: 8.8 g
  A/G: 0.9
  ALP: 1197.4 IU/L
  ALT: 36.6 IU/L
  AST: 66.4 IU/L
  BUN: 8.4 mg/dL
  CRE: 0.2 mg/dL
  Ca: 10.7 mg/dL
  Cl: 105.6 meq/L
  DBIL: 0.01 mg/dL
  GLC: 172.6 mg/dL
  IP: 9.5 mg/dL
  K: 4.1 meq/L
  LDH: 49 IU/L
  Na: 141.2 meq/L
  PL: 138.4 mg/dL
  RALB: 2.5 g/dL
  TBIL: 0.078 mg/dL
  TC: 78.8 mg/dL
  TG: 46.6 mg/dL
  TP: 5.2 g/dL
  gamma-GTP: 1 IU/L
9 h
  TERMINAL_BW: 202.2 g
  APTT: 15.8 s
  Bas: 0.2%
  Eos: 1.2%
  Fbg: 284 mg/dL
  Hb: 13.3 g/dL
  Ht: 40.1%
  Lym: 75.6%
  MCH: 21 pg
  MCHC: 33%
  MCV: 63.6 fL
  Mono: 2%
  Neu: 20.8%
  PT: 13.3 s
  Plat: 121 x10_4/uL
  RBC: 633 x10_4/ul
  Ret: 8.3%
  WBC: 72.5 x10_2/uL
  KIDNEY_L: 0.9 g
  KIDNEY_R: 1 g
  KIDNEY_TOTAL: 1.9 g
  LIVER: 7.9 g
  A/G: 0.9
  ALP: 1161.6 IU/L
  ALT: 38.6 IU/L
  AST: 73.8 IU/L
  BUN: 7.6 mg/dL
  CRE: 0.1 mg/dL
  Ca: 10.7 mg/dL
  Cl: 106.2 meq/L
  DBIL: 0 mg/dL
  GLC: 166.8 mg/dL
  IP: 9.4 mg/dL
  K: 4.3 meq/L
  LDH: 60.8 IU/L
  Na: 141 meq/L
  PL: 132.8 mg/dL
  RALB: 2.5 g/dL
  TBIL: 0.078 mg/dL
  TC: 78.4 mg/dL
  TG: 33.2 mg/dL
  TP: 5.2 g/dL
  gamma-GTP: 1 IU/L
24 h
  TERMINAL_BW: 220 g
  APTT: 17.4 s
  Bas: 0.2%
  Eos: 1.2%
  Fbg: 296 mg/dL
  Hb: 13.3 g/dL
  Ht: 40.5%
  Lym: 74.2%
  MCH: 21.3 pg
  MCHC: 32.9%
  MCV: 64.9 fL
  Mono: 3%
  Neu: 20.4%
  PT: 12.9 s
  Plat: 123.6 x10_4/uL
  RBC: 624.8 x10_4/ul
  Ret: 7.7%
  WBC: 89 x10_2/uL
  KIDNEY_L: 1 g
  KIDNEY_R: 1 g
  KIDNEY_TOTAL: 2 g
  LIVER: 10.3 g
  A/G: 0.9
  ALP: 1544.6 IU/L
  ALT: 44.6 IU/L
  AST: 67 IU/L
  BUN: 15.2 mg/dL
  CRE: 0.2 mg/dL
  Ca: 11.2 mg/dL
  Cl: 104.8 meq/L
  DBIL: 0.01 mg/dL
  GLC: 171.2 mg/dL
  IP: 8.3 mg/dL
  K: 4 meq/L
  LDH: 78 IU/L
  Na: 141.6 meq/L
  PL: 162.4 mg/dL
  RALB: 2.6 g/dL
  TBIL: 0.066 mg/dL
  TC: 89.8 mg/dL
  TG: 85.4 mg/dL
  TP: 5.6 g/dL
  gamma-GTP: 1.2 IU/L
